Patent publication US20130190309A1, “PHTHALAZINONE AND RELATED ANALOGS AS SIRTUIN MODULATORS” (priority 2009, published 2013)

Target: T1, SIRT1 (Homo sapiens, UniProt Q96EB6)
T1 sequence (Q96EB6 1-747): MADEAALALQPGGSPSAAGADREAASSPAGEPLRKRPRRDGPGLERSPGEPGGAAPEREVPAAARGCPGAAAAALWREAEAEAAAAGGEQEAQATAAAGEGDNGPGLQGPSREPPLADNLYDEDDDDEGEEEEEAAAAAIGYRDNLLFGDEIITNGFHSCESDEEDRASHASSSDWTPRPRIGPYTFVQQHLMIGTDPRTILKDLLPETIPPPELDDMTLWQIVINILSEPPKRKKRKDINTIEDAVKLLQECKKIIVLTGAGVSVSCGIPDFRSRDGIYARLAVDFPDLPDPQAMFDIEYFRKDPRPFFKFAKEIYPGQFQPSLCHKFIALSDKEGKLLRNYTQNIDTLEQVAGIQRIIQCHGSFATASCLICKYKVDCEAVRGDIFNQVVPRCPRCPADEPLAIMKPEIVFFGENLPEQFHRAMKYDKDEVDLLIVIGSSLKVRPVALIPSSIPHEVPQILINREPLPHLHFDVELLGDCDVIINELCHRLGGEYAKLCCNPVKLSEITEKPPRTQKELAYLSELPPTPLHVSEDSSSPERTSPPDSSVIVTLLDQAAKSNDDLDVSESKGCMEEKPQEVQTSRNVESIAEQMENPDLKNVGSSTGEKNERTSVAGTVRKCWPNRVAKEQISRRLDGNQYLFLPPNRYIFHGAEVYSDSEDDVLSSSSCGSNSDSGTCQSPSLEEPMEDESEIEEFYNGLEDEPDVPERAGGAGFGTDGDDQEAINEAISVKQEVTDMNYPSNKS
Assay: Mass spectrometry based SIRT1 deacetylase activation assay
Assay type: biochemical
Conditions: for Emax: 25 min, percent maximum fold activation of SIRT1, read-out: SIRT1 % FOLD ACT.; for EC1.5 (concentration giving 150% activation): concentration of test compound that results in 150% activation of SIRT1
Description: A mass spectrometry based assay was used to identify modulators of SIRT1 activity. The mass spectrometry based assay utilizes a peptide having 20 amino acid residues as follows: Ac-EE-K(biotin)-GQSTSSHSK(Ac)NleSTEG-K(5TMR)-EE-NH2 (SEQ ID NO: 1) wherein K(Ac) is an acetylated lysine residue and Nle is a norleucine. The peptide is labeled with the fluorophore 5TMR (excitation 540 nm/emission 580 nm) at the C-terminus. The sequence of the peptide substrate is based on p53 with several modifications. In addition, the methionine residue naturally present in the sequence was replaced with the norleucine because the methionine may be susceptible to oxidation during synthesis and purification.
The mass spectrometry assay is conducted as follows: 0.5 μM peptide substrate and 120 μM βNAD^+ is incubated with 10 nM SIRT1 for 25 minutes at 25° C. in a reaction buffer (50 mM Tris-acetate pH 8, 137 mM NaCl, 2.7 mM KCl, 1 mM MgCl2, 5 mM DTT, 0.05% BSA). Test compounds may be added to the reaction as described above. The SirT1 gene is cloned into a T7-promoter containing vector and transformed into BL21(DE3). After the 25 minute incubation with SIRT1, 10 μL of 10% formic acid is added to stop the reaction. Reactions are sealed and frozen for later mass spec analysis. Determination of the mass of the substrate peptide allows for precise determination of the degree of acetylation (i.e. starting material) as compared to deacetylated peptide (product).
A control for inhibition of sirtuin activity is conducted by adding 1 μL of 500 mM nicotinamide as a negative control at the start of the reaction (e.g., permits determination of maximum sirtuin inhibition). A control for activation of sirtuin activity is conducted using 10 nM of sirtuin protein, with 1 μL of DMSO in place of compound, to determine the amount of deacetylation of the substrate at a given timepoint within the linear range of the assay. This timepoint is the same as that used for test compounds and, within the linear range, the endpoint represents a change in velocity.
For the above assay, SIRT1 protein was expressed and purified as follows. The SirT1 gene was cloned into a T7-promoter containing vector and transformed into BL21(DE3). The protein was expressed by induction with 1 mM IPTG as an N-terminal His-tag fusion protein at 18° C. overnight and harvested at 30,000×g. Cells were lysed with lysozyme in lysis buffer (50 mM Tris-HCl, 2 mM Tris[2-carboxyethyl]phosphine (TCEP), 10 μM ZnCl2, 200 mM NaCl) and further treated with sonication for 10 min for complete lysis. The protein was purified over a Ni-NTA column (Amersham) and fractions containing pure protein were pooled, concentrated and run over a sizing column (Sephadex S200 26/60 global). The peak containing soluble protein was collected and run on an Ion-exchange column (MonoQ). Gradient elution (200 mM-500 mM NaCl) yielded pure protein. This protein was concentrated and dialyzed against dialysis buffer (20 mM Tris-HCl, 2 mM TCEP) overnight. The protein was aliquoted and frozen at −80° C. until further use.
Sirtuin modulating compounds that activated SIRT1 were identified using the assay described above and are shown below in Table 1. The EC1.5 values represent the concentration of test compounds that result in 150% activation of SIRT1. The EC1.5 values for the activating compounds are represented by A (EC1.5 <5 μM), B (EC1.5 5-50 μM), or C (EC1.5 >50 μM). The percent maximum fold activation is represented by A (Fold activation >150%) or B (Fold Activation <150%).

| Compound | Emax [%] | EC1.5 (concentration giving 150% activation) [µM] |
| --- | --- | --- |
| O=C(Nc1cccc2c1C(=O)N(c1cccc(C(F)(F)F)c1)CC2)c1cscn1 [Compound 100] | > 150 | 5 to 50 |
| O=C(Nc1cccc2c1C(=O)N(c1cccc(C(F)(F)F)c1)CC2)c1cnccn1 [Compound 101, N-(1-oxo-2-(3-(trifluoromethyl)phenyl)-1,2,3,4-tetrahydroisoquinolin-8-yl)pyrazine-2-carboxamide] | > 150 | 5 to 50 |
| O=C(Nc1cccc2cnn(-c3cccc(C(F)(F)F)c3)c(=O)c12)c1cscn1 [Compound 102] | < 150 | < 5 |
| O=C(Nc1cccc2cnn(-c3cccc(OC(F)(F)F)c3)c(=O)c12)c1cccc(OCC(O)CO)n1 (centres unmarked) [Compound 107, 6-(2,3-dihydroxypropoxy)-N-(4-oxo-3-(3-(trifluoromethoxy)phenyl)-3,4-dihydrophthalazin-5-yl)picolinamide] | > 150 | < 5 |

Next, values leading:

| Emax [%] | EC1.5 (concentration giving 150% activation) [µM] | Compound |
| --- | --- | --- |
| > 150 | 5 to 50 | O=C(Nc1cccc2cnn(-c3cccc(C(F)(F)F)c3)c(=O)c12)c1cnccn1 [Compound 103, N-(4-oxo-3-(3-(trifluoromethyl)phenyl)-3,4-dihydrophthalazin-5-yl)pyrazine-2-carboxamide] |
|  | > 50 | O=C(Nc1cccc2cnn(-c3cccc(C(F)(F)F)c3)c(=O)c12)C1CCOCC1 [Compound 104] |
| > 150 | < 5 | O=C(Nc1cccc2cnn(-c3cccc(C(F)(F)F)c3)c(=O)c12)c1cccc(OCC(O)CO)n1 (centres unmarked) [Compound 105, 6-(2,3-dihydroxypropoxy)-N-(4-oxo-3-(3-(trifluoromethyl)phenyl)-3,4-dihydrophthalazin-5-yl)picolinamide] |
| > 150 | < 5 | O=C(Nc1cccc2cnn(-c3cccc(C(F)(F)F)c3)c(=O)c12)c1cccc(CN2CCOCC2)n1 [Compound 106, 6-(morpholinomethyl)-N-(4-oxo-3-(3-(trifluoromethyl)phenyl)-3,4-dihydrophthalazin-5-yl)picolinamide] |
| > 150 | < 5 | O=C(Nc1cccc2cnn(-c3cccc(OC(F)(F)F)c3)c(=O)c12)c1cccc(CN2CCOCC2)n1 [Compound 108, 6-(morpholinomethyl)-N-(4-oxo-3-(3-(trifluoromethoxy)phenyl)-3,4-dihydrophthalazin-5-yl)picolinamide] |
